Some test systems named below: HCT-15 colon; SR leukemia; NCI-H460 lung; HOP-62 NSCLC; OVCAR-4 ovarian; OVCAR-3 ovarian; SF-268 CNS; MOLT-4 leukemia; HT29 colon.
Holding throughout (experiment): NCI tumour cell line growth inhibition, 48 h

Molecules are shown by their SMILES.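 The compound was tested at five concentrations on cells cultured in 96-well plates, with a 48-hour exposure period. GI50 = concentration required for 50% inhibition of growth. TGI denotes the concentration required for complete inhibition of growth.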

As to `COc1ccccc1NC(=O)CC(=O)N1N=C(C)C(N=Nc2ccc(S(N)(=O)=O)cc2)C1=O` (stereo not drawn), the TGI in the experiment on HCT-15 colon, in the experiment with SR leukemia, with NCI-H460 lung, in the experiment on HOP-62 NSCLC, with OVCAR-4 ovarian and with OVCAR-3 ovarian was above 100 µM each time. For the same molecule, the TGI in the experiment with SF-268 CNS, in the experiment with MOLT-4 leukemia and in the experiment on HT29 colon was above 100 µM each time.
In the case of `Cc1ccncc1.[O]=[Ge].[O]=[Ge].[O]=[Ge].[O]=[Ge].[O]=[Ge].[O]=[Ge][OH].[O]=[Ge][OH]`, the GI50 in the experiment with HCT-15 colon, in the experiment on SR leukemia, in the experiment on NCI-H460 lung, in the experiment on HOP-62 NSCLC, in the experiment with OVCAR-4 ovarian and with OVCAR-3 ovarian was above 100 µM each time. Further, the GI50 in the experiment with SF-268 CNS, in the experiment on MOLT-4 leukemia and in the experiment with HT29 colon was above 100 µM in each case. For the same molecule, the TGI with HCT-15 colon, in the experiment with SR leukemia, in the experiment with NCI-H460 lung, with HOP-62 NSCLC, with OVCAR-4 ovarian and with OVCAR-3 ovarian was above 100 µM each time. Moreover, the TGI with SF-268 CNS, in the experiment with MOLT-4 leukemia and with HT29 colon was above 100 µM throughout.
Take `C[N+](C)(C)CC(=O)N/N=C(/Cc1nc2c3c(ccc2[nH]c1=O)C(=O)c1ccccc1C3=O)C(=O)Nc1ccc(Cl)c(Cl)c1`: the TGI in the experiment with SR leukemia, in the experiment on NCI-H460 lung, in the experiment on HOP-62 NSCLC, in the experiment on OVCAR-4 ovarian, in the experiment with OVCAR-3 ovarian and in the experiment with SF-268 CNS was above 100 µM each time. For the same molecule, the TGI in the experiment on MOLT-4 leukemia and in the experiment with HT29 colon was above 100 µM in each case.
For the molecule `CCOC(=O)C1=C(C)N(Cc2ccccc2)C(C)=C(C(=O)OCC)C1c1ccccc1O`, the TGI in the experiment with HCT-15 colon is above 100 µM; with SR leukemia, 54.9 µM; in the experiment with NCI-H460 lung, above 100 µM; in the experiment with HOP-62 NSCLC it was 99.2 µM; with OVCAR-4 ovarian, above 100 µM; in the experiment with OVCAR-3 ovarian, 90.8 µM. Also, the TGI was above 100 µM with SF-268 CNS, 32.3 µM with MOLT-4 leukemia and above 100 µM in the experiment with HT29 colon.
As for `Cc1cc(N(CCC#N)S(=O)(=O)c2ccccc2)ccc1/C=C1N=C(/C=C/c2ccccc2)OC\1=O`, the TGI with HCT-15 colon, in the experiment with NCI-H460 lung, in the experiment on HOP-62 NSCLC, with OVCAR-3 ovarian, in the experiment with SF-268 CNS and in the experiment with MOLT-4 leukemia was above 100 µM in each case. The molecule further had a TGI with HT29 colon above 100 µM.
Take `CCCCCCCCCCCCOC(=S)NCCCC`: the TGI came to 37.2 µM in the experiment on HCT-15 colon; 42.7 µM in the experiment on SR leukemia; 53.2 µM with NCI-H460 lung; 73.4 µM with HOP-62 NSCLC; 99.7 µM in the experiment on OVCAR-4 ovarian; 58.1 µM in the experiment with SF-268 CNS. Moreover, the figures for the TGI in the experiment on MOLT-4 leukemia and with HT29 colon were 36 µM and 38.1 µM, respectively.
As for `CCCc1[nH]nc(CCC(=O)N(Cc2ccccc2)Cc2ccccc2)c1CC`, the TGI with HCT-15 colon, with NCI-H460 lung, with HOP-62 NSCLC, in the experiment with OVCAR-4 ovarian, in the experiment with OVCAR-3 ovarian and with SF-268 CNS was above 100 µM throughout. The TGI with MOLT-4 leukemia and with HT29 colon was above 100 µM throughout.
In the case of `COCCN1C2=CCCCC2=Nc2c1nc(N)[nH]c2=O`, the TGI with HCT-15 colon, in the experiment with SR leukemia, in the experiment on NCI-H460 lung, with HOP-62 NSCLC, with OVCAR-3 ovarian and with SF-268 CNS was above 100 µM in each case. Also, the TGI in the experiment on MOLT-4 leukemia and with HT29 colon was above 100 µM in each case.
As for `c1cc(-c2cn3ccsc3n2)ccn1`, the TGI with HCT-15 colon is above 62 µM; in the experiment on SR leukemia it was above 100 µM; in the experiment on NCI-H460 lung, above 100 µM; in the experiment with HOP-62 NSCLC, above 100 µM; in the experiment on OVCAR-4 ovarian, above 100 µM; with OVCAR-3 ovarian, above 100 µM. For the same molecule, the TGI in the experiment on SF-268 CNS, in the experiment on MOLT-4 leukemia and in the experiment with HT29 colon was above 100 µM throughout.
Consider `Cc1ccc(/C=C2\CN(C(=O)OC(C)(C)C)C/C(=C\c3ccc(C)cc3)C2=O)cc1`, for which the GI50 in the experiment with HCT-15 colon is 0.054 µM; in the experiment with SR leukemia it was 0.0346 µM; with NCI-H460 lung, 0.124 µM; with OVCAR-4 ovarian, 3.04 µM; in the experiment on OVCAR-3 ovarian it was 0.352 µM; in the experiment with SF-268 CNS, 0.34 µM. Moreover, the GI50 was 0.805 µM in the experiment with MOLT-4 leukemia and 0.46 µM in the experiment on HT29 colon. The TGI in the experiment with HCT-15 colon was above 100 µM; in the experiment on SR leukemia, above 100 µM; in the experiment on NCI-H460 lung, 10.7 µM; with HOP-62 NSCLC, above 100 µM; in the experiment on OVCAR-4 ovarian it was above 100 µM; in the experiment with SF-268 CNS, above 100 µM. Also, the TGI is above 41.9 µM in the experiment with MOLT-4 leukemia and above 40.7 µM in the experiment with HT29 colon.
Turning to `Cc1ccc(C(=O)O/N=C2/CCC/C2=C\c2ccccc2)cc1`, the TGI in the experiment on HCT-15 colon, with SR leukemia, in the experiment with NCI-H460 lung, with HOP-62 NSCLC, in the experiment with OVCAR-4 ovarian and with OVCAR-3 ovarian was above 100 µM throughout. For the same molecule, the TGI with SF-268 CNS, in the experiment with MOLT-4 leukemia and in the experiment on HT29 colon was above 100 µM throughout.
As to `N#CC(C(=O)/C(=N/NC(=O)c1ccccc1O)C(C#N)c1ccc(Cl)cc1)c1ccc(Cl)cc1` (stereo not drawn), the TGI came out at 37.7 µM in the experiment with HCT-15 colon; 29.7 µM in the experiment with NCI-H460 lung; 38.7 µM in the experiment on HOP-62 NSCLC; 33.9 µM in the experiment on OVCAR-4 ovarian; 35.5 µM in the experiment on OVCAR-3 ovarian; 32.2 µM with SF-268 CNS. The TGI with HT29 colon is 24.6 µM.
`NC(=S)N/N=C(/CC(=O)c1ccccc1)C(=O)Nc1ccc(Cl)c(Cl)c1`: the TGI in the experiment with HCT-15 colon, in the experiment with NCI-H460 lung, in the experiment on HOP-62 NSCLC, with OVCAR-4 ovarian, in the experiment with OVCAR-3 ovarian and in the experiment on SF-268 CNS was above 100 µM throughout. Moreover, the TGI in the experiment on MOLT-4 leukemia is 93.7 µM; in the experiment on HT29 colon, above 100 µM.
Take `CC(C)C(=O)Nc1nc2nc[nH]c2c(=O)[nH]1`: the TGI in the experiment on HCT-15 colon, in the experiment on SR leukemia, with NCI-H460 lung, with HOP-62 NSCLC, with OVCAR-4 ovarian and in the experiment with OVCAR-3 ovarian was above 100 µM in each case. Besides, the TGI in the experiment on SF-268 CNS, in the experiment with MOLT-4 leukemia and in the experiment with HT29 colon was above 100 µM throughout.

For the origin of these results see PubChem BioAssay (NCI).
